According to ChEMBL document CHEMBL5113435, “Development of an automated screen for Kv7.2 potassium channels and discovery of a new agonist chemotype” (Bioorg Med Chem Lett, 2022):

Tests used:
[1] = molecular target: T1, Potassium voltage-gated channel subfamily KQT member 2 (Homo sapiens, UniProt O43526); conditions: filed as agonist, dose 5.0 µM
Description: Agonist activity at Kv7.2 (unknown origin) assessed as shifting of voltage dependent activation to more negative potentials at 5 uM by SyncroPatch assay

Homo sapiens [2] = species on record: Homo sapiens; conditions: filed as agonist, dose 5.0 µM
Description: Agonist activity at Kv7.2 W236L mutant (unknown origin) assessed as shifting of voltage dependent activation to more negative potentials at 5 uM by SyncroPatch assay

[3] = molecular target: T2, Potassium voltage-gated channel subfamily KQT member 4 (Homo sapiens, UniProt P56696); assay: Agonist activity at Kv7.4 (unknown origin) expressed in CHO cells co-expressing GFP; format: cell-based
T2 sequence (P56696 whole entry): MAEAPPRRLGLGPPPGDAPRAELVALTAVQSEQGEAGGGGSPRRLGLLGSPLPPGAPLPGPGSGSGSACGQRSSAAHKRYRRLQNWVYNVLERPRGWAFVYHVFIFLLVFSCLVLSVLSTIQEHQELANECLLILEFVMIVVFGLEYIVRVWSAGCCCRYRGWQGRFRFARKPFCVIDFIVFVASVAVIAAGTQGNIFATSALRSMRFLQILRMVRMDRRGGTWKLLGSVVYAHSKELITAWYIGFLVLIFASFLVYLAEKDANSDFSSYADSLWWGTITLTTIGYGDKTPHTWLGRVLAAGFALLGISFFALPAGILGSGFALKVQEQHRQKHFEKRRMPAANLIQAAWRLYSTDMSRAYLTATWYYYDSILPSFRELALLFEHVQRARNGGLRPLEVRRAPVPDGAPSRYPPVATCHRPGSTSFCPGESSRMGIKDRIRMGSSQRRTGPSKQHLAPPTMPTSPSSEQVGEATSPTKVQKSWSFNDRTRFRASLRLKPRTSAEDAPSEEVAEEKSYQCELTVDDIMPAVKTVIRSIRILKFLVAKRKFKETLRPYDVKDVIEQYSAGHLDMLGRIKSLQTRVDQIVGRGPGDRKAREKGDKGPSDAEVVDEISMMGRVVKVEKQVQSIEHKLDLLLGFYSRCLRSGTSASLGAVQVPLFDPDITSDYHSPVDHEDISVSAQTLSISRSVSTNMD

[4] = molecular target: Potassium voltage-gated channel subfamily KQT member 5 (Homo sapiens, UniProt Q9NR82); assay: Agonist activity at Kv7.5 (unknown origin) expressed in CHO cells co-expressing GFP; format: cell-based
[5] = molecular target: Voltage-gated potassium channel, KQT; KCNQ2(Kv7.2)/KCNQ3(Kv7.3) (Homo sapiens, UniProt O43525+O43526); assay: Agonist activity at Kv7.2/3 (unknown origin) expressed in CHO cells co-expressing GFP; format: cell-based
Homo sapiens [6] = species on record: Homo sapiens; assay: Selectivity index, ratio of EC50 for agonist activity at Kv7.4 (unknown origin) expressed in CHO cells co-expressing GFP to EC50 for agonist activity at Kv7.2/3 (unknown origin) expressed in CHO cells co-expressing GFP; format: cell-based
Homo sapiens [7] = species on record: Homo sapiens; assay: Selectivity index, ratio of EC50 for agonist activity at Kv7.5 (unknown origin) expressed in CHO cells co-expressing GFP to EC50 for agonist activity at Kv7.2/3 (unknown origin) expressed in CHO cells co-expressing GFP; format: cell-based
[8] = molecular target: T1, Potassium voltage-gated channel subfamily KQT member 2; assay: Agonist activity at Kv7.2 (unknown origin) assessed as shifting of voltage dependent activation to more negative potentials by SyncroPatch assay

T1 sequence (O43526 whole entry): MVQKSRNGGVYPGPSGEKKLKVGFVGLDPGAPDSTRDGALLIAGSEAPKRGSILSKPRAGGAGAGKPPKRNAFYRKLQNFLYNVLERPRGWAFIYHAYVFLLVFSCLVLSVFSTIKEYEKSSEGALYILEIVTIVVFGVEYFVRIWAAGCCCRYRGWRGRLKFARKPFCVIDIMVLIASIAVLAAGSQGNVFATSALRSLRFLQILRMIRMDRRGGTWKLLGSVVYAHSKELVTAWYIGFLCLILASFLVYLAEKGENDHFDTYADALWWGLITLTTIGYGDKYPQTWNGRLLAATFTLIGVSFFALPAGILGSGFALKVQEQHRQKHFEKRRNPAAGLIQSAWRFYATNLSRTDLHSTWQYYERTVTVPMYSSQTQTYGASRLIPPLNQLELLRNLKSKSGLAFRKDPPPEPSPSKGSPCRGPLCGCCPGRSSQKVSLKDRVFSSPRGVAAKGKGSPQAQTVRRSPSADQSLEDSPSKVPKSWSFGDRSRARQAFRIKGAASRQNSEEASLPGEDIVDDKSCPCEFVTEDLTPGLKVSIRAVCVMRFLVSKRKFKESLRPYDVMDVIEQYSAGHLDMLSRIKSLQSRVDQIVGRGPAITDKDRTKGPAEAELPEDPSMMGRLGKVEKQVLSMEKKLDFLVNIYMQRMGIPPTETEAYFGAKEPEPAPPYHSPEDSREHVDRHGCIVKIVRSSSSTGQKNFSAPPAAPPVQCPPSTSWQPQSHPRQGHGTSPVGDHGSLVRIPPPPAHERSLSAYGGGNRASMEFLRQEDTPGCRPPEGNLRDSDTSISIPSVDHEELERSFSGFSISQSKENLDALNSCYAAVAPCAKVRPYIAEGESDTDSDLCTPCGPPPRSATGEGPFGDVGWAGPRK
Potassium voltage-gated channel subfamily KQT member 5, sequence (Q9NR82 whole entry): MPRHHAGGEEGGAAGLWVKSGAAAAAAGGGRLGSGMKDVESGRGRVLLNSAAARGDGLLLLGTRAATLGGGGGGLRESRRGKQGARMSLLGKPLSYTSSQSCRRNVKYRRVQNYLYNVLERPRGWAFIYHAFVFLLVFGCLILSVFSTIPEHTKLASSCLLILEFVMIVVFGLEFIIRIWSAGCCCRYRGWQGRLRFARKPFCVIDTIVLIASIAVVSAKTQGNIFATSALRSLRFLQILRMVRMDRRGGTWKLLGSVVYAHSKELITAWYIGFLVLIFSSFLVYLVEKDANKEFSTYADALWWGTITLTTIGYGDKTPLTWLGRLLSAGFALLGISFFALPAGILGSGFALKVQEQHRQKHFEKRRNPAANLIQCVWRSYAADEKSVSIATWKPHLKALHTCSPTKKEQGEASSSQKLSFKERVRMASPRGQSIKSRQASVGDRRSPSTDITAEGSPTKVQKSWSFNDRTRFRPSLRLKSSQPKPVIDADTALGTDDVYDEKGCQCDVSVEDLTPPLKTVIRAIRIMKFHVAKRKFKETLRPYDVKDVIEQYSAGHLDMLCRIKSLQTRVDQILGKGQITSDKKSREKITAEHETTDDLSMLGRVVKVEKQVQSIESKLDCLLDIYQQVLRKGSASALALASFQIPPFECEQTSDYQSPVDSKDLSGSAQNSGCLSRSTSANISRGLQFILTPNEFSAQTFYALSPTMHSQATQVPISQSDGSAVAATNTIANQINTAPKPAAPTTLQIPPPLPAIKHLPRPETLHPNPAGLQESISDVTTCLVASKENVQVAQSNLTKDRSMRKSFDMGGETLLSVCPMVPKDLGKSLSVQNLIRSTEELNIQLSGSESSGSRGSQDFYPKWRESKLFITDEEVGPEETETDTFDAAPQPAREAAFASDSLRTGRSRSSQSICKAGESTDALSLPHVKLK
Voltage-gated potassium channel, KQT; KCNQ2(Kv7.2)/KCNQ3(Kv7.3), sequence (O43526 whole entry): as the sequence (O43526 whole entry) above
Voltage-gated potassium channel, KQT; KCNQ2(Kv7.2)/KCNQ3(Kv7.3), sequence (O43525 whole entry): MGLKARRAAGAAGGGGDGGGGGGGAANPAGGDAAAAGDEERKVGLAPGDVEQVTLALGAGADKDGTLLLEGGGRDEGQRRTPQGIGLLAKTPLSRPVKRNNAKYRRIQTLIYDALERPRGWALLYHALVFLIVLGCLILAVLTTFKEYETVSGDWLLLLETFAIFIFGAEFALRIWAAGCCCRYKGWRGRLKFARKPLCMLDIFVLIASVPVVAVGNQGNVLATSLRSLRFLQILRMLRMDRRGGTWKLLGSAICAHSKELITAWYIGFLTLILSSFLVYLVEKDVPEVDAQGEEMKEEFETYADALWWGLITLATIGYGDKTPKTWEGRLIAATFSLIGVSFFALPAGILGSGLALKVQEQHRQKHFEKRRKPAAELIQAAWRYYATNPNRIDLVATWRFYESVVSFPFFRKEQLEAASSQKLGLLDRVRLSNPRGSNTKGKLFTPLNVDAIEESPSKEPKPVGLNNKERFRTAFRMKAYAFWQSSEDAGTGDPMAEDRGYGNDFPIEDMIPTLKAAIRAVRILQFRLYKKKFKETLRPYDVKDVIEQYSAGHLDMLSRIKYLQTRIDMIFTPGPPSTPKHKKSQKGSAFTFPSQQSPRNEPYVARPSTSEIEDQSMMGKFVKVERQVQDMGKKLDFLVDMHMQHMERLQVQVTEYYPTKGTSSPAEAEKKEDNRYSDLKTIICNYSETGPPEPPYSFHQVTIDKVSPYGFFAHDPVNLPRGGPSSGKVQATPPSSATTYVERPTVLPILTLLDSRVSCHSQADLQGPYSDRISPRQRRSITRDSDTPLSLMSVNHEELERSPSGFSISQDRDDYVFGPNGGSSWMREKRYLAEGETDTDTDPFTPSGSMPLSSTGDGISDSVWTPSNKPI

**Q.** What does the source list for `COc1ccc2c(c1)[C@@H](NC(=O)OCc1ccccc1)[C@H](C)[C@@H](c1ccccc1)N2C(=O)NC(C)C`?
**A.** V1/2 [1]: 6.2 mV; V1/2 (Homo sapiens [2]): 4.9 mV

**Q.** Which results are given for `COc1ccc2c(c1)[C@@H](NC(C)=O)[C@H](C)[C@@H](c1ccccc1)N2C(=O)Nc1ccc(C(F)(F)F)cc1`?
**A.** V1/2 [1]: 10 mV; V1/2 (Homo sapiens [2]): -2.7 mV

**Q.** Which results are given for `O=C(Nc1ccc2[nH]c(-c3ccc(C(F)(F)F)cc3)cc2c1)OC1CC1`?
**A.** V1/2 [1]: 6.2 mV; V1/2 (Homo sapiens [2]): 4.7 mV

**Q.** With `COc1ccc(CNc2cc3ccccc3c(=O)[nH]2)cc1` as the molecule, how does the V1/2 [1] read?
**A.** -3 mV

**Q.** And the V1/2 (Homo sapiens [2])?
**A.** 1.3 mV

**Q.** Which V1/2 [1] does the source give for `CC(C)(C)CC(=O)Nc1ccc2[nH]c(-c3ccc(C(F)(F)F)cc3)cc2c1` here?
**A.** -4.1 mV

**Q.** What about the V1/2 (Homo sapiens [2]) of the same molecule?
**A.** 3.2 mV

**Q.** `CCOC(=O)Nc1ccc2[nH]c(-c3ccc(C(F)(F)F)cc3)cc2c1` was tested. Which V1/2 [1] did it give?
**A.** -4.8 mV

**Q.** What about the V1/2 (Homo sapiens [2]) of the same molecule?
**A.** -6 mV

**Q.** Which results are given for `CCOC(=O)Nc1ccc(NCc2ccc(F)cc2)nc1N`?
**A.** V1/2 [1]: -23.8 mV; V1/2 (Homo sapiens [2]): 1.2 mV

**Q.** For `COc1ccc2c(c1)[C@@H](NC(C)=O)[C@H](C)[C@@H](c1ccccc1)N2C(C)=O`, which V1/2 [1] is on record?
**A.** 2.5 mV

**Q.** And the V1/2 (Homo sapiens [2])?
**A.** 0.26 mV

**Q.** `CCOC(=O)Nc1ccc(NCc2ccc(C(F)(F)F)nc2)c(F)c1N` was tested. Which EC50 [3] did it give?
**A.** 660 nM

**Q.** What about the EC50 [4] of the same molecule?
**A.** 540 nM

**Q.** And the EC50 [5]?
**A.** 3360 nM

**Q.** Which results are given for `CCOC(=O)Nc1ccc(NCc2ccc(C(F)(F)F)cc2)c(F)c1N`?
**A.** V1/2 [1]: -48.1 mV; V1/2 ([1]; tested as the 2H-labelled form): -45.2 mV; V1/2 (Homo sapiens [2]): 1.9 mV; V1/2 (Homo sapiens [2]; tested as the 2H-labelled form): -4.4 mV

**Q.** With `O=C(Cc1ccc(OC(F)(F)F)cc1)Nc1ccc2[nH]c(-c3ccc(C(F)(F)F)cc3)cc2c1` as the molecule, how does the V1/2 [1] read?
**A.** -8.9 mV

**Q.** And the V1/2 (Homo sapiens [2])?
**A.** 3.9 mV

**Q.** `Nc1c(NC(=O)OC2CC2)ccc(NCc2ccc(C(F)(F)F)cc2)c1F` was tested. Which EC50 [3] did it give?
**A.** 910 nM

**Q.** What about the EC50 [4] of the same molecule?
**A.** 3780 nM

**Q.** What about the Ratio EC50 (Homo sapiens [6]) of the same molecule?
**A.** 50

**Q.** And the Ratio EC50 (Homo sapiens [7])?
**A.** 50

**Q.** What about the EC50 [8] of the same molecule?
**A.** 3030 nM

**Q.** And the V1/2 [1]?
**A.** -44.9 mV

**Q.** And the V1/2 (Homo sapiens [2])?
**A.** -9.3 mV

**Q.** And the EC50 [5]?
**A.** 18 nM

**Q.** With `CCOC(=O)Nc1ccc(NCc2ccc(F)cc2)cc1N` [EZOGABINE] as the molecule, how does the EC50 [8] read?
**A.** 4210 nM

**Q.** What about the V1/2 [1] of the same molecule?
**A.** -34.3 mV

**Q.** What about the V1/2 (Homo sapiens [2]) of the same molecule?
**A.** 4.2 mV

**Q.** Which EC50 [3] does the source give for `CCOC(=O)Nc1cc(F)c(NCc2ccc(C(F)(F)F)cc2)c(F)c1N` here?
**A.** 87 nM

**Q.** And the EC50 [4]?
**A.** 1060 nM

**Q.** What does the source list for `Nc1c(F)c(NCc2ncc(C(F)(F)F)cc2F)c(F)c(F)c1NC(=O)OC1CC1`?
**A.** EC50 [3]: 320 nM; EC50 [4]: 3780 nM

**Q.** Which V1/2 [1] does the source give for `O=C(Cc1cc(F)cc(F)c1)Nc1ccc2[nH]c(-c3ccc(C(F)(F)F)cc3)cc2c1` here?
**A.** -1.1 mV

**Q.** What about the V1/2 (Homo sapiens [2]) of the same molecule?
**A.** 2.4 mV

**Q.** Which V1/2 [1] does the source give for `CC[C@H]1Nc2ccc(OC)cc2[C@@H](NS(C)(=O)=O)[C@@H]1C` here?
**A.** -3 mV

**Q.** What about the V1/2 (Homo sapiens [2]) of the same molecule?
**A.** 2.8 mV

**Q.** Which results are given for `CCOC(=O)Nc1ccc2[nH]c(-c3ccc(F)cc3)cc2c1`?
**A.** V1/2 [1]: -0.66 mV; V1/2 (Homo sapiens [2]): 2.5 mV

**Q.** `CC(C)OC(=O)Nc1ccc2[nH]c(-c3ccc(C(F)(F)F)cc3)cc2c1` was tested. Which V1/2 [1] did it give?
**A.** -3.2 mV

**Q.** And the V1/2 (Homo sapiens [2])?
**A.** -0.31 mV

**Q.** Which V1/2 [1] does the source give for `CCOC(=O)Nc1cc(F)c2c(c1N)S(=O)(=O)CC(c1ccccc1)N2` (stereo unspecified) here?
**A.** 4.4 mV

**Q.** And the V1/2 (Homo sapiens [2])?
**A.** 2.8 mV

**Q.** `[2H]c1cc(NC(=O)OCC)c(N)c(F)c1NCc1ccc(C(F)(F)F)cc1` was tested. Which EC50 [8] did it give?
**A.** 980 nM
